Test results published in US11944623B2, “Modulators of Kv3 channels to treat pain” (Autifony Therapeutics Limited, priority 2015, dated 2024).

Tests used:
Human Nav1.7 channels = target: T1, Human Nav1.7 channels (Homo sapiens, UniProt Q15858); experiment: Nav1.7 QPatch assay; format: cell-based; settings: 10 µM concentration (N=3)
T1 construct: expressed in transfected cells
Protocol: Human Nav1.7 channels were stably expressed in a HEK293 cell line. Electrophysiological recordings were made at room temperature using an automated patch clamp platform (QPatch, Sophion Biosciences).
The QPatch assay was carried out at room temperature using the QPatch platform (Sophion). On the day of the experiment cells were cultured according to standard cell preparation for QPatch. Internal and external physiological solutions were freshly prepared prior to the assay. The standard extracellular solution contained 145 mM NaCl, 4 mM KCl, 2 mM CaCl2, 2 mM MgCl2, 10 mM HEPES and 10 mM glucose; the pH was adjusted to 7.4 with NaOH, and the osmolarity measured as 314mOsm/L. The standard intracellular solution contained 140 mM CsF, 10 mM NaCl, 5 mM CsOH, 1 mM EGTA, 10 mM HEPES; the pH was adjusted to 7.25 with CsOH, and the osmolarity measured as 293mOsm/L.
A series of 40 voltage pulses (from −120 mV to 0 mV, 2.4 ms long at 117 Hz) were applied every 60 s in control (twice), compound (five times), standard blocker (twice) and washout (twice). The % inhibition values were calculated by normalising the data relative to the 1st pulse (P1) and by calculating the ratio between the 40th pulse versus the 1st pulse (P40/1). Series resistance and quality of seals were monitored during the experiments. Sophion QPatch Assay Software 5.0 was used to analyse and plot all the graphs. 10 μM of the test compound was applied followed by 1 μM TTX (standard blocker), followed by saline (washout). Compounds were diluted in physiological solutions at the required concentration with a maximum of 0.1% of DMSO.

Human Kv3.4 channels = target: T2, Human Kv3.4 channels (Homo sapiens, UniProt Q03721); experiment: Kv3.4 Assay 2 (QPatch, HEK293); format: cell-based; parameters: dose or concentration left out as unconfirmed; settings: for reduction in peak Kv3.4 current: peak currents did not recover to baseline on washout
T2 construct: expressed in transfected cells
T2 sequence (Q03721 1-635): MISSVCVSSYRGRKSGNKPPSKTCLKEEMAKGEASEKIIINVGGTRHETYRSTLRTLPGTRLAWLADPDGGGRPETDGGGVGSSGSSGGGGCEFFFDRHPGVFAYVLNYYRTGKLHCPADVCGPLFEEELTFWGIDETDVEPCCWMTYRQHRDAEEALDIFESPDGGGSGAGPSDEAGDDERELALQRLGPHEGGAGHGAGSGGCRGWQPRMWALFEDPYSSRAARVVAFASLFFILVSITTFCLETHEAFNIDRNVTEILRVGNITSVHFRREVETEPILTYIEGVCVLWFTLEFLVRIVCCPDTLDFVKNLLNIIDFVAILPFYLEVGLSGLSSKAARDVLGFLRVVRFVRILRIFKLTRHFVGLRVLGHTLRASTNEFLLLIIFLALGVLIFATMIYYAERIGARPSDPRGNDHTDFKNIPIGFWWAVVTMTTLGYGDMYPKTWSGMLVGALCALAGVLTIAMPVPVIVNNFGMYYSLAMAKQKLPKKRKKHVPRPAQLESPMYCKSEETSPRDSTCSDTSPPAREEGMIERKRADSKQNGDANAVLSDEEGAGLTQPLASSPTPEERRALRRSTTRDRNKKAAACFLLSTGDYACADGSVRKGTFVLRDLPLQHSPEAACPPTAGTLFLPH
Protocol: Human Kv3.4 channels were stably expressed in a HEK293 cell line. Cells were used within 1-4 hours of cell preparation and internal and external physiological solutions were freshly prepared prior to the assay. Electrophysiological recordings were made using an automated patch clamp platform (QPatch, Sophion Biosciences). The extracellular solution contained 145 mM NaCl, 4 mM KCl, 2 mM CaCl2, 1 mM MgCl2, 10 mM HEPES and 10 mM glucose; the pH was adjusted to 7.4 with NaOH, and the osmolarity measured as 313 mOsm/L. A low potassium intracellular solution was used which contained 135.6 mM CsCl, 5.37 mM CaCl2, 1.75 mM MgCl2, 10 mM EGTA, 15.6 mM KOH, 4 mM Na2ATP and 10 mM HEPES; the pH was adjusted to 7.2 with CsOH, and the osmolarity measured as 303 mOsm/L.
The voltage dependence of inactivation of the homomeric hKv3.4 channels was tested using a protocol that consisted of a series of two square voltage pulses. The pulse one (P1=pre-pulse) was 1000 ms long and was immediately followed by a second pulse (P2=test pulse) which was 500 ms long. Pulse one varied between the holding potential of −60 mV to +40 mV and pulse two stepped from a holding potential of −60 to +40 mV before returning to the holding potential of −60 mV.
Steady-state voltage-activation and -inactivation curves were fitted with single Boltzmann function in which G/Gmax was obtained from normalized current amplitude and the V50 represent the half-activation or inactivation voltage.
The time constants of the inactivation phase of the hKv3.4 currents were derived from a mono (τ) or a double (τ1 and τ2) standard exponential fit to peak trace pulse from −80 mV to +60 mV.
The time-course of effect of the compounds against the hKv3.4 potassium channel was measured with repetitive voltage pulses from a holding potential of −60 mV, with pulses of 500 ms duration every 5 s to +40 mV.
One concentration (10 uM) of the test compounds was assessed during the activation, inactivation and peak pulse protocols. The protocol was applied with addition of physiological solution (control period), followed by 10 uM of the testing compound and a 10 mM of the standard blocker TEA.
Data were normalized using the baseline current control values as top of the curve (maximum current; 1.0) and the zero potassium current as the bottom of the curve (minimum current; 0.0).
Series resistance and quality of seals were monitored during the experiments. Analysis was performed using the Sophion QPatch Assay Software (version 5.2).
Stock solutions (10 mM) of the standard blockers TEA was prepared in fresh physiological solution prior to testing on the e-phys automated platform. The test compounds were prepared in 10 mM DMSO stock and then diluted 1 in 1000 in physiological solution.

T1 sequence (Q15858 whole entry): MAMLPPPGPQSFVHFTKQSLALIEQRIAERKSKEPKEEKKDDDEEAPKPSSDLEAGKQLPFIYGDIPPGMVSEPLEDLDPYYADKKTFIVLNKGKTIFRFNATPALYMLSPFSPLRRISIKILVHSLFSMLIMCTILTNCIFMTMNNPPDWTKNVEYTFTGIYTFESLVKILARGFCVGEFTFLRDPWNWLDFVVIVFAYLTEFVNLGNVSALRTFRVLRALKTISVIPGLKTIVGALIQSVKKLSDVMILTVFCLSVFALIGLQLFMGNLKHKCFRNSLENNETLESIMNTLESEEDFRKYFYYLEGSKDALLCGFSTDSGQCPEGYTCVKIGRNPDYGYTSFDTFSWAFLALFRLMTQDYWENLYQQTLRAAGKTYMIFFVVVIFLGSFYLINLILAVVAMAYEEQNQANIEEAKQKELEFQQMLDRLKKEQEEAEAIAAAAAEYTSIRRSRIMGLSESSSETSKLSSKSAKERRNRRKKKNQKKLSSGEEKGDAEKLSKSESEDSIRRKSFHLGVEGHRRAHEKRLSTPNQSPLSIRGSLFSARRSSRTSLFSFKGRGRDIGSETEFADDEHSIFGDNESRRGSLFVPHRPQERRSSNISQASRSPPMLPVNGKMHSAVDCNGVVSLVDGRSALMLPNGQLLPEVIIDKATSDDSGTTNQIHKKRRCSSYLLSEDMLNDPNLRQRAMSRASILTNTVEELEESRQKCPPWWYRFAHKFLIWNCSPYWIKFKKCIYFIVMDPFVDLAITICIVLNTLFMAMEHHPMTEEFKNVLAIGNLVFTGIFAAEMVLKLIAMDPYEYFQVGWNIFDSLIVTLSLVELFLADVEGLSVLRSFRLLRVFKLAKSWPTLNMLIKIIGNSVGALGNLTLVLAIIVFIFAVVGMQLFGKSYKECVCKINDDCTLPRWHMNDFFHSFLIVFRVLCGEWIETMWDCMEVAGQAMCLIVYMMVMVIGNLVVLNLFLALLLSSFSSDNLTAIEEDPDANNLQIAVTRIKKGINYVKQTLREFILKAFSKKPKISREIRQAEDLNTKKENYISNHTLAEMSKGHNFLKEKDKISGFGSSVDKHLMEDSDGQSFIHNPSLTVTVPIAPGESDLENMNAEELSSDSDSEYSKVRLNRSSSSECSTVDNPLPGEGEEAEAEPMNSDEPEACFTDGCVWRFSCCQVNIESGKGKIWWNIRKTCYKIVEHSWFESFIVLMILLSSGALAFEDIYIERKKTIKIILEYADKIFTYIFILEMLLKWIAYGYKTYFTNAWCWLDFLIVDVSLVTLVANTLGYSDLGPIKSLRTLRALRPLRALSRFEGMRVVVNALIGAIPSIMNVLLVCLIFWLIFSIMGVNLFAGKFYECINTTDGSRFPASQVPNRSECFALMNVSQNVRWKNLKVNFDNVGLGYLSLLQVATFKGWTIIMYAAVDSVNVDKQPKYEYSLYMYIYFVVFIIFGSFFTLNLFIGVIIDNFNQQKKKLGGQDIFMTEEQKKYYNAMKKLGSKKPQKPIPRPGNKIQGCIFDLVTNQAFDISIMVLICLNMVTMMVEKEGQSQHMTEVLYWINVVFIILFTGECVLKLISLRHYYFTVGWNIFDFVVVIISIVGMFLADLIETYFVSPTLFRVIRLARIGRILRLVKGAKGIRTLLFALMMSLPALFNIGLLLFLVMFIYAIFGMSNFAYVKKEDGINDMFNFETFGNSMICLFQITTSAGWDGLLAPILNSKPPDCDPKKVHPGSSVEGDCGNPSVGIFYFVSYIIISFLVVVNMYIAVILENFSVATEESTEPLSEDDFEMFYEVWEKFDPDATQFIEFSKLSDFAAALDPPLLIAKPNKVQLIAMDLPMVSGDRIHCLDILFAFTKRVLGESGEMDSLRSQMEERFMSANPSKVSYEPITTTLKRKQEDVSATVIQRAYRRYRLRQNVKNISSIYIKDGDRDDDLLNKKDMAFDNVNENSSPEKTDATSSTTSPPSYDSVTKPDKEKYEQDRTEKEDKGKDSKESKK

Cc1ccc(Oc2ncc(N3C(=O)NC(C)(C)C3=O)cn2)c2c1OCC21CC1 [Compound 1, 5,5-dimethyl-3-[2-(7-methylspiro[2H-benzofuran-3,1′-cyclopropane]-4-yl)oxypyrimidin-5-yl]imidazolidine-2,4-dione]
effect on Nav1.7-mediated currents (Human Nav1.7 channels): No significant effect
potentiation of the observed Kv3.4 current (Human Kv3.4 channels): did not potentiate
shift in the voltage-dependence of activation of the Kv3.4 currents (Human Kv3.4 channels): did not produce any notable shift
reduction in peak Kv3.4 current (Human Kv3.4 channels): 40±5%

CC[C@@]1(C)NC(=O)N(c2cnc(Oc3ccc(C)c(OC(F)(F)F)c3)nc2)C1=O [Compound 2, (5R)-5-ethyl-5-methyl-3-[2-({4-methyl-3-[(trifluoromethyl)oxy]phenyl}oxy)-5-pyrimidinyl]-2,4-imidazolidinedione]
effect on Nav1.7-mediated currents (Human Nav1.7 channels): No significant effect
potentiation of the observed Kv3.4 current (Human Kv3.4 channels): did not potentiate
shift in the voltage-dependence of activation of the Kv3.4 currents (Human Kv3.4 channels): did not produce any notable shift
reduction in peak Kv3.4 current (Human Kv3.4 channels): 45.4±4%

Cc1ccc(Oc2ccc(-n3c(C)n[nH]c3=O)cn2)c2c1OCC21CC1 [Compound 3, 5-methyl-4-{6-[(7-methylspiro[1-benzofuran-3,1′-cyclopropan]-4-yl)oxy]pyridin-3-yl}-2,4-dihydro-3H-1,2,4-triazol-3-one]
effect on Nav1.7-mediated currents (Human Nav1.7 channels): No significant effect
potentiation of the observed Kv3.4 current (Human Kv3.4 channels): did not potentiate
shift in the voltage-dependence of activation of the Kv3.4 currents (Human Kv3.4 channels): did not produce any notable shift
reduction in peak Kv3.4 current (Human Kv3.4 channels): 36±3%

CC[C@H]1NC(=O)N(c2ccc(Oc3ccc(C)c4c3C3(CC3)CO4)nc2)C1=O [Compound 4, (5R)-5-ethyl-3-[6-(7-methylspiro[2H-benzofuran-3,1′-cyclopropane]-4-yl)oxy-3-pyridyl]imidazolidine-2,4-dione]
potentiation of the observed Kv3.4 current (Human Kv3.4 channels): did not potentiate
shift in the voltage-dependence of activation of the Kv3.4 currents (Human Kv3.4 channels): did not produce any notable shift
reduction in peak Kv3.4 current (Human Kv3.4 channels): 50.0±4%
